Active and inactive are the calls of the source. The calls are words filed in the database; no cut-off is given here.
Experiments:
[1] = system: Huh-7; experiment: Inhibition of oleic acid-induced triglyceride accumulation in human HuH7 cells after 24 hrs; type: functional, cell-based
[2] = system: Huh-7; experiment: Inhibition of oleic acid-induced triglyceride accumulation in human HuH7 cells up to 50 uM after 24 hrs by Oil Red O staining based assay; type: functional, cell-based
[3] = system: Huh-7; experiment: Cytotoxicity against human HuH7 cells after 24 hrs by LDH release assay; type: cell-based; details: huh-7, 24 h

Row | Compound | inhibition [1] | inhibition [2] | Activity [3]
1 | CC(=O)C(C)(C)/C=C/[C@H](C)[C@@]1(O)C(=O)[C@H]2[C@@H](C=C[C@@H]2C)[C@H](C)[C@@H]1O | Dose-dependent effect | Active | Non-Toxic
2 | CC(=O)C(C)(C)/C=C/[C@@H](C)[C@@]1(O)C(=O)[C@H]2[C@@H](C=C[C@@H]2C)[C@H](C)[C@@H]1O | Dose-dependent effect | Active | Non-Toxic
